Some test systems named below: HS 578T breast; UACC-257 melanoma; MCF7 breast; OVCAR-3 ovarian; SF-295 CNS; MDA-N; KM12 colon; NCI-H460 lung; SW-620 colon; U251 CNS.
Assay in all cases: NCI-60 cell line screen, 48 h

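A five-concentration, 48-hour dose response in 96-well plates underlies each endpoint, interpolated linearly between surrounding concentrations. Here, GI50 denotes the concentration required for 50% inhibition of growth. TGI denotes the concentration required for complete inhibition of growth.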

On to `COc1ccc(CNCCN2C(=O)c3ccc4c5c(ccc(c35)C2=O)C(=O)N(CCNCc2ccc(OC)c(OC)c2OC)C4=O)c(OC)c1OC`, for which the GI50 was 0.985 µM in the assay with HS 578T breast, 0.113 µM in the assay on UACC-257 melanoma, 0.222 µM in the assay on MCF7 breast and 0.121 µM in the assay with OVCAR-3 ovarian. Also, the TGI was found to be 2.81 µM in the assay on HS 578T breast, 0.303 µM in the assay with UACC-257 melanoma, 1.15 µM in the assay on MCF7 breast and 0.353 µM in the assay on OVCAR-3 ovarian.
As for `O=[N+]([O-])c1cc(-c2ccc([As](=O)(O)O)cc2)ccc1[As](=O)(O)O`, the TGI with HS 578T breast, in the assay on SF-295 CNS, with UACC-257 melanoma, with MDA-N, with OVCAR-3 ovarian and in the assay on KM12 colon was greater than 100 µM each time. The TGI in the assay on NCI-H460 lung, in the assay with SW-620 colon and in the assay with U251 CNS was greater than 100 µM throughout.
`CN(C)c1ccc(/C=C(\C#N)C(=O)c2ccccc2)cc1Br`: the TGI in the assay on SF-295 CNS, with UACC-257 melanoma, in the assay on OVCAR-3 ovarian, in the assay with KM12 colon, in the assay with NCI-H460 lung and in the assay on SW-620 colon was greater than 100 µM throughout. Moreover, in the assay on U251 CNS, the TGI is greater than 100 µM.
Consider `CC(C)C(N=C1CC2CCC1(C(=O)Nc1ccccc1O)C2(C)C)c1ccccc1` (stereo unspecified), for which the TGI in the assay on SF-295 CNS, in the assay on UACC-257 melanoma, with OVCAR-3 ovarian, in the assay with KM12 colon, in the assay on NCI-H460 lung and in the assay on SW-620 colon was greater than 10 µM each time. In the assay with U251 CNS, this compound displayed a TGI greater than 10 µM.
On to `O=C(C#Cc1ccccc1)Nc1ccccc1CC(c1c[nH]c2ccccc12)c1c[nH]c2ccccc12`, for which the TGI is 80 µM in the assay with SF-295 CNS; greater than 100 µM in the assay on UACC-257 melanoma; 29.2 µM in the assay on OVCAR-3 ovarian; 44.4 µM in the assay with KM12 colon; 27.4 µM with SW-620 colon.
For the compound `CNC(=O)/C(C#N)=C(\N)N1CCCC1`, the TGI with HS 578T breast, in the assay on MDA-N, in the assay with OVCAR-3 ovarian, in the assay on KM12 colon, in the assay on NCI-H460 lung and in the assay with SW-620 colon was greater than 100 µM in each case. The TGI in the assay with U251 CNS is greater than 100 µM.
Consider `Cn1cnc([N+](=O)[O-])c1Sc1nnc(-c2ccc(Cl)cc2)n1C`, for which the TGI in the assay on SF-295 CNS is greater than 100 µM; with UACC-257 melanoma, 25.5 µM; with OVCAR-3 ovarian, 26.9 µM; in the assay with KM12 colon it was 49.9 µM; with NCI-H460 lung, 55.7 µM; in the assay on SW-620 colon, 23.5 µM. This compound had a TGI in the assay with U251 CNS of 30.4 µM.
Turning to `COc1ccc(-c2oc(C=Nc3ccccc3)c([N+](=O)[O-])c2-c2ccc(OC)c(OC)c2)cc1OC`, the TGI in the assay on SF-295 CNS, in the assay with UACC-257 melanoma, in the assay with OVCAR-3 ovarian, with KM12 colon, with NCI-H460 lung and with SW-620 colon was greater than 100 µM each time. Moreover, the TGI in the assay on U251 CNS was greater than 100 µM.
Take `O=C(Cn1cc(I)c(C(=O)NCC(O)CO)n1)NCC(O)CO` (stereo unspecified): the TGI in the assay with SF-295 CNS, in the assay with UACC-257 melanoma, in the assay on OVCAR-3 ovarian, in the assay on KM12 colon, in the assay with NCI-H460 lung and with SW-620 colon was greater than 100 µM throughout. The same compound yielded a TGI in the assay with U251 CNS greater than 100 µM.
Turning to `CCC(/C(=N/NC(=O)C[N+](C)(C)C)c1ccccc1)C1OC(=O)c2ccccc21` (stereo unspecified), the TGI in the assay on SF-295 CNS, in the assay on UACC-257 melanoma, with OVCAR-3 ovarian, in the assay on KM12 colon, in the assay with NCI-H460 lung and with SW-620 colon was greater than 100 µM throughout. This compound returned a TGI with U251 CNS greater than 100 µM.
As to `CC(=O)O[C@H]1C(=O)[C@@]2(C)C(C(OC(=O)c3ccccc3)[C@]3(O)CC(OC(=O)C(O)C(NC(=O)c4cccc(Cl)c4)c4ccccc4)C(C)=C1C3(C)C)[C@]1(OC(C)=O)CO[C@@H]1C[C@@H]2O` (stereo partly specified), the TGI in the assay on SF-295 CNS was greater than 10 µM; in the assay with UACC-257 melanoma it was greater than 10 µM; in the assay with MCF7 breast, greater than 10 µM; in the assay with MDA-N, 0.334 µM; with OVCAR-3 ovarian, greater than 10 µM; in the assay with KM12 colon it was greater than 10 µM. For the same compound, the TGI in the assay on NCI-H460 lung is greater than 10 µM; with SW-620 colon, greater than 10 µM; with U251 CNS it was 8.9 µM.
Take `CCOC1=C2N=C(C(CC)c3ccc(F)cc3)N=C2C(=O)c2ccccc21` (stereo unspecified): the TGI is 63.7 µM in the assay with SF-295 CNS; 49 µM with UACC-257 melanoma; greater than 91.1 µM in the assay with OVCAR-3 ovarian; greater than 56.5 µM in the assay with KM12 colon; greater than 79.8 µM in the assay with NCI-H460 lung; greater than 100 µM in the assay with SW-620 colon. Besides, the TGI in the assay on U251 CNS is 53.5 µM.
Take `O=C(NC1CCCCC1)N1CCNC1=S`: the TGI in the assay with HS 578T breast, in the assay on SF-295 CNS, in the assay with UACC-257 melanoma, in the assay with MDA-N, in the assay with OVCAR-3 ovarian and in the assay on KM12 colon was greater than 100 µM each time. The TGI in the assay with NCI-H460 lung and in the assay with SW-620 colon was greater than 100 µM in each case.
Regarding `CCN(CC)CCNC(=O)C1COc2ccc(-c3cc(=O)c4ccccc4o3)cc2O1` (stereo unspecified), the TGI with SF-295 CNS stood at 39.3 µM; with UACC-257 melanoma it was 32 µM; with MCF7 breast it was 44.6 µM; with OVCAR-3 ovarian, 41.4 µM; in the assay with KM12 colon, 35.4 µM; in the assay on NCI-H460 lung, 36.2 µM. For the same compound, the TGI in the assay on SW-620 colon was 45.9 µM; with U251 CNS, greater than 65.2 µM.
For `O=C(/C=C/c1cc2ccccc2[nH]c1=O)c1ccc(O)cc1`, the GI50 was 6.14 µM with HS 578T breast; 7.04 µM with SF-295 CNS; 3.87 µM in the assay with UACC-257 melanoma; 3.49 µM in the assay on MCF7 breast; 3.22 µM in the assay on OVCAR-3 ovarian; 1.89 µM in the assay with KM12 colon. For the same compound, the GI50 is 2.39 µM in the assay on NCI-H460 lung, 1.89 µM in the assay with SW-620 colon and 2.6 µM in the assay on U251 CNS. Also, the TGI with HS 578T breast is greater than 100 µM; with SF-295 CNS, 44 µM; in the assay with UACC-257 melanoma it was 16 µM; with MCF7 breast, 16.8 µM; with OVCAR-3 ovarian, 11.8 µM; in the assay with KM12 colon, 4.5 µM. Besides, the TGI with NCI-H460 lung was found to be 6.87 µM; in the assay with SW-620 colon it was 4.45 µM; with U251 CNS, 10.9 µM.

The values are drawn from PubChem BioAssay (NCI).
